Results as given in US5554542A, “Immunoassay for isothiazolones” (Rohm and Haas Company, priority 1993, dated 1996).

Key:
[1] = tested on: antibodies in mouse serum; assay: Competitive inhibition ELISA (CIEIA) screening of mouse sera for isothiazolone antibodies; assay type: binding, BALB/c mice; conditions: for % Inhibition: inhibitor final 1 ppm, b98 says 10^-4 M; for Reactivity of serum antibodies toward inhibitor: serum of mouse 1E, immunized with 573-THY
Description: Blood samples were taken from the mice immunized in the above example. The sera were separated from the red blood cells by centrifugation. The sera were then screened for activity using competitive inhibition ELISA (CIEIA). Ninety-six well polystyrene EIA ([…]) plates were coated with 100 μl of 651 conjugated to BSA (651-BSA), 651 conjugated to THY (651-THY), 573 conjugated to BSA (573-BSA), or 573 conjugated to THY (573-THY) for at least two hours at room temperature or 16 hours at 4° C. Unbound material was washed from the wells with five washes of PBS-T. The wells then received 50 μl of buffer alone (PBS-T) or inhibitors, either 651 or 573, each diluted to 2 ppm in buffer. The wells then received 50 μl of mouse serum, so that each serum was reacted with either buffer, 651 or 573 (inhibitors). […] The wells were incubated for 30-60 minutes at room temperature. They were then washed five times with PBS-T to remove unbound material and each well then received 100 μl of a 1 μg/ml solution of biotinylated horse anti-mouse IgG (Vector Laboratories, Burlingame, Calif.), and the assay continued as described for the ELISA, supra.
If the antibodies in a serum were reactive with one or both of the inhibitors in solution in the wells, the antibody molecules, or a percentage of the antibody molecules, would bind to the inhibitors, and would therefore form an antibody-inhibitor complex which would stay in solution and be removed from the plate during the washing step. In such a case, the binding of the antibody to the inhibitor would reduce the number of antibody molecules available to bind to the coating antigen, 651-BSA. Because fewer antibody molecules are attached to the 651-BSA, there is a reduction in the number of biotinylated horse anti-mouse IgG molecules bound, resulting in fewer molecules of avidin-peroxidase complex being bound, resulting in reduced hydrolysis of the substrate, leading ultimately to lower absorbances. In all cases, the inhibitor concentration was 10^-4 M.

[2] = tested on: antibodies in hybridoma culture supernatants (CF10, EH9, EC2, EC2 IB8); assay: CIEIA of hybridoma culture supernatants; assay type: binding, mouse; conditions: culture EH9, supernatant dilution 1:4, tested versus 0.4 ppm of inhibitor, coating 651-BSA; no inhibitor 0.515
[3] = mouse 1D serum, immunogen 573-BSA, coating conjugate 573-THY
[4] = mouse 1D serum, immunogen 573-BSA, coating conjugate 651-THY
[5] = mouse 1E serum, immunogen 573-THY, coating conjugate 573-BSA
[6] = mouse 1E serum, immunogen 573-THY, coating conjugate 651-BSA
[7] = mouse 2D serum, immunogen 573-BSA, coating conjugate 651-THY
[8] = mouse 2E serum, immunogen 573-THY, coating conjugate 573-BSA
[9] = mouse 2E serum, immunogen 573-THY, coating conjugate 651-BSA

Structure (SMILES)	% Inhibition [1, 3] [%]	% Inhibition [1, 4] [%]	% Inhibition [1, 5] [%]	% Inhibition [1, 6] [%]	% Inhibition [1, 7] [%]	% Inhibition [1, 8] [%]	% Inhibition [1, 9] [%]	Reactivity of serum antibodies toward inhibitor [1]	Inhibitors (Absorbance) [2]
Cn1sc(Cl)cc1=O [compound 651, 5-chloro-2-methyl-3-isothiazolone]	0	10	44	34	12	12	7	reactive	0.186
Cn1sccc1=O [compound 573, 2-methyl-3-isothiazolone]	12	0	21	28	0	10	12	reactive	0.504
